Test results as given in publication PMC8901636, “Preclinical studies of Flonoltinib Maleate, a novel JAK2/FLT3 inhibitor, in treatment of JAK2^V617F-induced myeloproliferative neoplasms” (Blood Cancer Journal, 2022).
Read-outs that look alike come from different tables or passages of the source.

How the values were obtained:
[1] = PK and tissue distribution after repeated oral administration in Ba/F3-EPOR-JAK2^V617F tumor-bearing mice; assay type: in vivo; details: for Kp: spleen and plasma, po
[2] = test system: Ba/F3-JAK2^WT; assay: MTT assay for cell proliferation; assay type: cell-based, Murine; details: Mus musculus, 72 h, read-out: IC50(μM) ± SD, tumor cell proliferation
Method: For in vitro inhibition assays, cells were seeded in 96-well culture plates with a density of 15,000–20,000 cells/well after the cells reached 70–90% confluence. […] MTT (3-(4, 5-dimethylthiazol-2-yl)-2, 5-diphenyltetrazolium bromide) (Cat. No. 1334GR001; BioFroxx) assay was conducted in order to examine viability. The IC50 values were fitted using GraphPad Prism 7.0.

[3] = target: TYK2 (Homo sapiens, UniProt P29597); assay: In vitro kinase assay
Chain of TYK2 (P29597 whole entry): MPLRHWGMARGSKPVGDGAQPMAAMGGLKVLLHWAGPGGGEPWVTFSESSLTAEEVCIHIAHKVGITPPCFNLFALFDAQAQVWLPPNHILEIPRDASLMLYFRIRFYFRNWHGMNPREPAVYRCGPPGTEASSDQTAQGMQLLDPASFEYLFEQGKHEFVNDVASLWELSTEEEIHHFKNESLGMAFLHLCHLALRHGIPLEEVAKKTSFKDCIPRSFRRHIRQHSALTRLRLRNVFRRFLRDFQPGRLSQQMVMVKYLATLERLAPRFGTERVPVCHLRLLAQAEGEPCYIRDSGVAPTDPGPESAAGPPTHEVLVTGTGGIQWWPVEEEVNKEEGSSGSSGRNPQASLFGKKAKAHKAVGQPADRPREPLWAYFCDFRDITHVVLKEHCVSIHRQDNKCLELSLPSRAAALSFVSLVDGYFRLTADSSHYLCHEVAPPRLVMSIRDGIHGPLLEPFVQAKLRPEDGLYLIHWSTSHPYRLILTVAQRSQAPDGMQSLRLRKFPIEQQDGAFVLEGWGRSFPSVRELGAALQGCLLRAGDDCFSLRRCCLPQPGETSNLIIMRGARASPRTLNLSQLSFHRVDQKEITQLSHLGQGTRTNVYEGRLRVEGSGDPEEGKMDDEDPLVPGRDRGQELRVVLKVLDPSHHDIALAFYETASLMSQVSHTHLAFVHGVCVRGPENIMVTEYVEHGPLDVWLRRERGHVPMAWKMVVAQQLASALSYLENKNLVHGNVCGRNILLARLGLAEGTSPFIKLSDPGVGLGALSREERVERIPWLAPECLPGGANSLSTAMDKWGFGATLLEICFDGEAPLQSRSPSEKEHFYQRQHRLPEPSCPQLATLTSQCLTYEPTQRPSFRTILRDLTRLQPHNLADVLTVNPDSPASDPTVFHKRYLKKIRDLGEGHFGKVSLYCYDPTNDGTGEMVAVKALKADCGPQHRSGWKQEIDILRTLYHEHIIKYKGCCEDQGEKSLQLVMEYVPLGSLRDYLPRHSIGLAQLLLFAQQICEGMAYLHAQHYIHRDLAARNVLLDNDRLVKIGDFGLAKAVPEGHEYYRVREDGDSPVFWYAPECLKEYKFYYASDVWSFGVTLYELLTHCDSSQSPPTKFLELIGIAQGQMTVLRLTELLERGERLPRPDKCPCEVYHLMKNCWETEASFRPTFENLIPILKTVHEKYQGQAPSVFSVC

[4] = BALB/c nude, mouse, heart, oral, 30 mg/kg, repeated, read-out: FM concentration, Heart
[5] = BALB/c nude, mouse, intestine, oral, 30 mg/kg, repeated, read-out: FM concentration, Intestine
[6] = BALB/c nude, mouse, kidney, oral, 30 mg/kg, repeated, read-out: FM concentration, Kidney
[7] = BALB/c nude, mouse, liver, oral, 30 mg/kg, repeated, read-out: FM concentration, Liver
[8] = BALB/c nude, mouse, lung, oral, 30 mg/kg, repeated, read-out: FM concentration, Lung
[9] = BALB/c nude, mouse, muscle, oral, 30 mg/kg, repeated, read-out: FM concentration, Muscle
[10] = BALB/c nude, mouse, plasma, oral, 30 mg/kg, repeated, read-out: FM concentration, Plasma
[11] = BALB/c nude, mouse, spleen, oral, 30 mg/kg, repeated, read-out: FM concentration, Spleen
[12] = BALB/c nude, mouse, stomach, oral, 30 mg/kg, repeated, read-out: FM concentration, Stomach
[13] = BALB/c nude, mouse, Plasma, repeated oral 30 mg/kg
[14] = BALB/c nude, mouse, Spleen, repeated oral 30 mg/kg

Cc1cnc(Nc2ccc(N3CCC(N(C)CCO)CC3)c(F)c2)nc1-c1cnn(C(C)C)c1 [FM, 2-((1-(2-fluoro-4-((4-(1-isopropyl-1H-pyrazol-4-yl)-5-methylpyrimidin-2-yl)amino)phenyl)piperidin-4-yl)(methyl)amino)ethan-1-ol]
concentration at 0 h [1, 4]: 7.06 ± 1.49 ng/g | concentration at 0.5 h [1, 4]: 1890 ± 756 ng/g | concentration at 2 h [1, 4]: 1320 ± 674 ng/g | concentration at 4 h [1, 4]: 578 ± 356 ng/g | concentration at 8 h ([1]; BALB/c nude, mouse, heart, oral, 30 mg/kg, repeated, 8 h, read-out: FM concentration, Heart): 357 ± 376 ng/g | concentration at 12 h ([1]; BALB/c nude, mouse, heart, oral, 30 mg/kg, repeated, 12 h, read-out: FM concentration, Heart): 15.8 ± 11.3 ng/g | concentration at 0 h [1, 5]: 21.4 ± 19.1 ng/g | concentration at 0.5 h [1, 5]: 31200 ± 12600 ng/g | concentration at 2 h [1, 5]: 4210 ± 1320 ng/g | concentration at 4 h [1, 5]: 9610 ± 6020 ng/g | concentration at 8 h ([1]; BALB/c nude, mouse, intestine, oral, 30 mg/kg, repeated, 8 h, read-out: FM concentration, Intestine): 1380 ± 1370 ng/g | concentration at 12 h ([1]; BALB/c nude, mouse, intestine, oral, 30 mg/kg, repeated, 12 h, read-out: FM concentration, Intestine): 250 ± 337 ng/g | concentration at 0 h [1, 6]: 16.6 ± 1.41 ng/g | concentration at 0.5 h [1, 6]: 11800 ± 3010 ng/g | concentration at 2 h [1, 6]: 7560 ± 1990 ng/g | concentration at 4 h [1, 6]: 4640 ± 1860 ng/g | concentration at 8 h ([1]; BALB/c nude, mouse, kidney, oral, 30 mg/kg, repeated, 8 h, read-out: FM concentration, Kidney): 1790 ± 1450 ng/g | concentration at 12 h ([1]; BALB/c nude, mouse, kidney, oral, 30 mg/kg, repeated, 12 h, read-out: FM concentration, Kidney): 174 ± 121 ng/g | concentration at 0 h [1, 7]: 12.9 ± 3.13 ng/g | concentration at 0.5 h [1, 7]: 4360 ± 3900 ng/g | concentration at 2 h [1, 7]: 6420 ± 1260 ng/g | concentration at 4 h [1, 7]: 6660 ± 5810 ng/g | concentration at 8 h ([1]; BALB/c nude, mouse, liver, oral, 30 mg/kg, repeated, 8 h, read-out: FM concentration, Liver): 1900 ± 1330 ng/g | concentration at 12 h ([1]; BALB/c nude, mouse, liver, oral, 30 mg/kg, repeated, 12 h, read-out: FM concentration, Liver): 151 ± 116 ng/g | concentration at 0 h [1, 8]: 18.5 ± 4 ng/g | concentration at 0.5 h [1, 8]: 11400 ± 1780 ng/g | concentration at 2 h [1, 8]: 7150 ± 1880 ng/g | concentration at 4 h [1, 8]: 3890 ± 1470 ng/g | concentration at 8 h ([1]; BALB/c nude, mouse, lung, oral, 30 mg/kg, repeated, 8 h, read-out: FM concentration, Lung): 1450 ± 1430 ng/g | concentration at 12 h ([1]; BALB/c nude, mouse, lung, oral, 30 mg/kg, repeated, 12 h, read-out: FM concentration, Lung): 132 ± 76.7 ng/g | concentration at 0 h [1, 9]: 18.6 ± 11.7 ng/g | concentration at 0.5 h [1, 9]: 415 ± 435 ng/g | concentration at 2 h [1, 9]: 275 ± 158 ng/g | concentration at 4 h [1, 9]: 181 ± 120 ng/g | concentration at 8 h ([1]; BALB/c nude, mouse, muscle, oral, 30 mg/kg, repeated, 8 h, read-out: FM concentration, Muscle): 85 ± 73.1 ng/g | concentration at 12 h ([1]; BALB/c nude, mouse, muscle, oral, 30 mg/kg, repeated, 12 h, read-out: FM concentration, Muscle): 13.3 ± 6.38 ng/g | concentration at 0 h [1, 10]: 5.6 ± 1.53 ng/mL | concentration at 0.25 h [1, 10]: 628 ± 144 ng/mL | concentration at 0.5 h [1, 10]: 889 ± 238 ng/mL | concentration at 1 h [1, 10]: 1040 ± 375 ng/mL | concentration at 2 h [1, 10]: 638 ± 168 ng/mL | concentration at 4 h [1, 10]: 292 ± 101 ng/mL | concentration at 8 h ([1]; BALB/c nude, mouse, plasma, oral, 30 mg/kg, repeated, 8 h, read-out: FM concentration, Plasma): 106 ± 84.1 ng/mL | concentration at 12 h ([1]; BALB/c nude, mouse, plasma, oral, 30 mg/kg, repeated, 12 h, read-out: FM concentration, Plasma): 19.3 ± 12.9 ng/mL | concentration at 24 h ([1]; BALB/c nude, mouse, plasma, oral, 30 mg/kg, repeated, 24 h, read-out: FM concentration, Plasma): 5.56 ± 4.97 ng/mL | Kp ([1]; BALB/c nude, mouse, 30 mg/kg, AUC(0–24h) of spleen higher than that of plasma, repeated oral 30 mg/kg): 17.9 | Kp ([1]; BALB/c nude, mouse, 30 mg/kg, repeated oral 30 mg/kg, read-out: Cmax of spleen higher than that of plasma): 14.1 | concentration at 0 h [1, 11]: 69 ± 44.8 ng/g | concentration at 0.25 h [1, 11]: 3700 ± 1440 ng/g | concentration at 0.5 h [1, 11]: 12100 ± 1910 ng/g | concentration at 1 h [1, 11]: 17100 ± 6420 ng/g | concentration at 2 h [1, 11]: 12200 ± 4390 ng/g | concentration at 4 h [1, 11]: 6180 ± 1680 ng/g | concentration at 8 h ([1]; BALB/c nude, mouse, spleen, oral, 30 mg/kg, repeated, 8 h after the last administration, read-out: FM concentration, Spleen): 2150 ± 1390 ng/g | concentration at 12 h ([1]; BALB/c nude, mouse, spleen, oral, 30 mg/kg, repeated, 12 h after the last administration, read-out: FM concentration, Spleen): 391 ± 181 ng/g | concentration at 0 h [1, 12]: 71.8 ± 44.3 ng/g | concentration at 0.5 h [1, 12]: 33100 ± 22700 ng/g | concentration at 2 h [1, 12]: 19300 ± 20700 ng/g | concentration at 4 h [1, 12]: 11700 ± 8600 ng/g | concentration at 8 h ([1]; BALB/c nude, mouse, stomach, oral, 30 mg/kg, repeated, 8 h, read-out: FM concentration, Stomach): 3500 ± 5190 ng/g | concentration at 12 h ([1]; BALB/c nude, mouse, stomach, oral, 30 mg/kg, repeated, 12 h, read-out: FM concentration, Stomach): 2490 ± 2530 ng/g | Cmax [1, 13]: 1280 ± 455 ng/mL | half-life [1, 13]: 2.85 ± 1.14 h | AUC(0-t) ([1]; BALB/c nude, mouse, Plasma, repeated oral 30 mg/kg, read-out: AUC0–24 h): 3740 ± 704 ng·h/mL | Cmax [1, 14]: 18100 ± 5680 ng/g | half-life [1, 14]: 2.37 ± 0.58 h | Cl ([1]; Plasma, repeated oral 30 mg/kg): 137 ± 31.8 mL/min/kg | Vdss ([1]; Plasma, repeated oral 30 mg/kg): 32.81 ± 11.21 L/kg | AUC0–24 h ([1]; Spleen, repeated oral 30 mg/kg): 67200.44 ± 11858.88 ng^.h/mL | IC50 [2]: 0.39 ± 0.2 µM | IC50 [3]: 65 nM
